Test system: Meloidogyne incognita
Assay: 96-well microplate bioassay of nematicidal activity of culture filtrates on Meloidogyne spp. larva suspension
Details: 1 μg/mL, control drug, after 3 days
Method: To select filamentous fungi having an excellent nematicidal activity, the present inventors have received 61 culture filtrates of filamentous fungi to screen their nematicidal activities. Specifically, roots of a tomato plant infected with Meloidogyne spp. were washed with running water to remove foreign substances. Thereafter, the well-washed roots were cut into pieces at intervals of 1 cm or less, and put into a blender. Then, a 0.5% sodium hypochlorite solution was added at such an amount that the roots were immersed, and the roots were ground for one minute. Subsequently, the ground roots were filtered through a 65 μm sieve to remove root debris, and the eggs passed through the sieve were collected through a 25 μm sieve, and then washed with sterilized water several times. A concentration of the collected Meloidogyne spp. eggs was measured using a stereoscopic microscope.
The nematicidal activities of the culture filtrates of the 61 fungi were screened using a 96-well microplate bioassay. 45 μL of a Meloidogyne spp. larva suspension, which includes approximately 50 larvae, was added to each of holes, and then treated with a 10% culture filtrate. After 3 days of the sample treatment, the nematicidal activity was determined using the following equation. […]

abamectin was tested, and the nematicidal activity was 95%.

From patent US20220119761A1, “ASPERGILLUS NIGER F22 STRAIN HAVING NEMATICIDAL ACTIVITY AGAINST PLANT-PARASITIC NEMATODES, AND USE THEREOF” (INDUSTRY FOUNDATION OF CHONNAM NATIONAL UNIVERSITY, priority 2015, published 2022)
